Laboratory results published in patent US8680139B2 (Progenra, priority 2009, dated 2014).

The molecules below were run against T1, USP7 (Homo sapiens, UniProt Q93009) (assay: USP7, Ub-PLA2 assay). Settings: Ub-PLA2 / NBD C6-HPC fluorescence, 30 minute preincubation; read-out: EC50 for inhibition of USP7.
T1 construct: full length human USP7 protein; made in house
Assay type: biochemical
How it was run: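 Compounds tested against USP7 with DMSO vehicle control and NEM-treated wells as background. Fluorescence (RFU) read-out; % inhibition normalized per plate to mean DMSO and NEM controls.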

T1 sequence (Q93009 whole entry): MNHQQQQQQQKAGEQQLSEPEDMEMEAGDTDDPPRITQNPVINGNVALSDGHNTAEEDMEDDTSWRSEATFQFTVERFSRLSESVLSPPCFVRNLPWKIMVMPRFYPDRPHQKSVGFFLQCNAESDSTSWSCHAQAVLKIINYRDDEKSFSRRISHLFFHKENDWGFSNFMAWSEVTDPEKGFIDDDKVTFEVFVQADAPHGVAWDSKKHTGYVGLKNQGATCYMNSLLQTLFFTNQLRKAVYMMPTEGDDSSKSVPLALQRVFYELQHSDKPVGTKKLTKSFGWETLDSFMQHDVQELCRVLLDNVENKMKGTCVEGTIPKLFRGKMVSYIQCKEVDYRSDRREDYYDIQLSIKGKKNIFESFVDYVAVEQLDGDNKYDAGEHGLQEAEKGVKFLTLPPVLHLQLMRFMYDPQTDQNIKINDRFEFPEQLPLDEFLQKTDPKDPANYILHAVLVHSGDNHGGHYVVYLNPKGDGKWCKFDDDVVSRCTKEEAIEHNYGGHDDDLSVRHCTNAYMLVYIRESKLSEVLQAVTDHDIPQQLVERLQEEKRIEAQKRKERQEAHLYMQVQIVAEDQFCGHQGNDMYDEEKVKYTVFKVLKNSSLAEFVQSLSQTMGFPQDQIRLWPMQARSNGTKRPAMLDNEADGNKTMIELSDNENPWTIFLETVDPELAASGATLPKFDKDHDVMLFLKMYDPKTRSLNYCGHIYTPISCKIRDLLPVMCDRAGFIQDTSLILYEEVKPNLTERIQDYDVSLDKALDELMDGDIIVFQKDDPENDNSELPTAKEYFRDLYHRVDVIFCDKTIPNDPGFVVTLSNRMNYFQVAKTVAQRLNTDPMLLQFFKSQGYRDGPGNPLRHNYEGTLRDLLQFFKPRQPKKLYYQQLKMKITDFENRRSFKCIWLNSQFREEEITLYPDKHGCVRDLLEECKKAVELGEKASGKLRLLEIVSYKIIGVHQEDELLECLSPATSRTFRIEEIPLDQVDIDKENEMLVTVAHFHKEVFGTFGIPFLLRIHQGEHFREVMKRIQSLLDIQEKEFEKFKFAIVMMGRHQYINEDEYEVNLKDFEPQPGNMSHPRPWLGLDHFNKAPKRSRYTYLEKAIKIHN

Row | Structure (SMILES) | EC50 [µM]
1 | O=C(c1cccc([N+](=O)[O-])c1)c1cc([N+](=O)[O-])c(Sc2ccc(Cl)cc2Cl)s1 [Example 31, [5-(2,4-dichlorophenyl)sulfanyl-4-nitro-2-thienyl]-(3-nitrophenyl)methanone] | > 10
2 | O=C(NCc1cccc(C(F)(F)F)c1)c1cc([N+](=O)[O-])c(Sc2c(Cl)cncc2Cl)s1 [Example 148, 5-((3,5-dichloropyridin-4-yl)thio)-4-nitro-N-(3-(trifluoromethyl)benzyl)thiophene-2-carboxamide] | ≤ 1
3 | CC(=O)c1cc([N+](=O)[O-])c(Sc2c(F)c(F)cc(F)c2F)s1 [Example 36, 1-[4-nitro-5-(2,3,5,6-tetrafluorophenyl)sulfanyl-2-thienyl]ethanone] | 1 to 10
4 | O=C(c1cc([N+](=O)[O-])c(Sc2c(Cl)cncc2Cl)s1)N1CCCC(O)C1 (stereo not drawn) [Example 83, (5-((3,5-dichloropyridin-4-yl)thio)-4-nitrothiophen-2-yl)(3-hydroxypiperidin-1-yl)methanone] | 1 to 10
5 | Nc1ccc(NC(=O)c2cc([N+](=O)[O-])c(Sc3c(Cl)cncc3Cl)s2)cc1 [Example 235, N-(4-aminophenyl)-5-((3,5-dichloropyridin-4-yl)thio)-4-nitrothiophene-2-carboxamide] | ≤ 1
6 | O=C(Nc1ccc(Cl)cc1Cl)c1cc([N+](=O)[O-])c(Sc2c(Cl)cncc2Cl)s1 [Example 141, N-(2,4-dichlorophenyl)-5-((3,5-dichloropyridin-4-yl)thio)-4-nitrothiophene-2-carboxamide] | ≤ 1
7 | NC(=O)c1cc([N+](=O)[O-])c(Sc2c(Cl)cncc2Cl)s1 [Example 46, 5-[(3,5-dichloro-4-pyridyl)sulfanyl]-4-nitro-thiophene-2-carboxamide] | 1 to 10
8 | CN1CCN(CCNC(=O)c2cc([N+](=O)[O-])c(Sc3c(Cl)cncc3Cl)s2)CC1 [Example 64, 5-((3,5-dichloropyridin-4-yl)thio)-N-(2-(4-methylpiperazin-1-yl)ethyl)-4-nitrothiophene-2-carboxamide] | 1 to 10
9 | CSCCNC(=O)c1cc([N+](=O)[O-])c(Sc2c(Cl)cncc2Cl)s1 [Example 50, 5-((3,5-dichloropyridin-4-yl)thio)-N-(2-(methylthio)ethyl)-4-nitrothiophene-2-carboxamide] | 1 to 10
10 | O=C(NC1CCCCC1)c1cc([N+](=O)[O-])c(Sc2c(Cl)cncc2Cl)s1 [Example 154, N-cyclohexyl-5-((3,5-dichloropyridin-4-yl)thio)-4-nitrothiophene-2-carboxamide] | ≤ 1
11 | O=C(Nc1ccc(F)cc1C(F)(F)F)c1cc([N+](=O)[O-])c(Sc2c(Cl)cncc2Cl)s1 [Example 139, 5-((3,5-dichloropyridin-4-yl)thio)-N-(4-fluoro-2-(trifluoromethyl)phenyl)-4-nitrothiophene-2-carboxamide] | ≤ 1
12 | O=C(NCc1ccc2c(c1)CCO2)c1cc([N+](=O)[O-])c(Sc2c(Cl)cncc2Cl)s1 [Example 70, 5-((3,5-dichloropyridin-4-yl)thio)-N-((2,3-dihydrobenzofuran-5-yl)methyl)-4-nitrothiophene-2-carboxamide] | 1 to 10
13 | O=C(NCc1ccc(OC(F)(F)F)cc1)c1cc([N+](=O)[O-])c(Sc2c(Cl)cncc2Cl)s1 [Example 114, 5-((3,5-dichloropyridin-4-yl)thio)-4-nitro-N-(4-(trifluoromethoxy)benzyl)thiophene-2-carboxamide] | ≤ 1
14 | CC(c1cc([N+](=O)[O-])c(Sc2ccc(Cl)cc2Cl)s1)N(C)C (stereo not drawn) [Example 29, 1-[5-(2,4-dichlorophenyl)sulfanyl-4-nitro-2-thienyl]-N,N-dimethyl-ethanamine] | > 10
15 | O=C(NCc1ccccc1)c1cc([N+](=O)[O-])c(Sc2nc3ccccc3s2)s1 [Example 252, 5-(benzo[d]thiazol-2-ylthio)-N-benzyl-4-nitrothiophene-2-carboxamide] | 1 to 10
